US9670157B2, “Benzylamine derivatives” (KALVISTA PHARMACEUTICALS LIMITED, priority 2013, dated 2017)
Read-outs that look alike come from different tables or passages of the source.

Columns and labels:
[1] = biological target: Human plasma kallikrein (Homo sapiens (Human), UniProt P03952); test: Determination of the IC50 for Plasma Kallikrein; format: biochemical; settings: read-out: IC50 (human PKal)
Protocol: Human plasma kallikrein (Protogen) was incubated at 37° C. with the fluorogenic substrate H-DPro-Phe-Arg-AFC and various concentrations of the test compound. Residual enzyme activity (initial rate of reaction) was determined by measuring the change in optical absorbance at 410 nm and the IC50 value for the test compound was determined.

[2] = biological target: Human KLK1 (Homo sapiens (Human), UniProt P06870); test: Determination of the IC50 for KLK1; format: biochemical; settings: 37° C., fluorogenic substrate H-DVal-Leu-Arg-AFC
Human KLK1, sequence (P06870 25-262): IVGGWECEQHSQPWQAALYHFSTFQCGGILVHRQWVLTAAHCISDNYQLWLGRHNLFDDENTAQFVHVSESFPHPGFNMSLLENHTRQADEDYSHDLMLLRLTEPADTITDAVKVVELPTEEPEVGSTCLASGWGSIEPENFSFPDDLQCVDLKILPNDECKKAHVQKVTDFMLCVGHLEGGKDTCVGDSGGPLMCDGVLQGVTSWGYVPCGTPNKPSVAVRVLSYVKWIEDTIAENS
Protocol: KLK1 inhibitory activity in vitro was determined using standard published methods (see e.g. Johansen et al., Int. J. Tiss. Reac. 1986, 8, 185; Shori et al., Biochem. Pharmacol., 1992, 43, 1209; Stürzebecher et al., Biol. Chem. Hoppe-Seyler, 1992, 373, 1025). Human KLK1 (Callbiochem) was incubated at 37° C. with the fluorogenic substrate H-DVal-Leu-Arg-AFC and various concentrations of the test compound. Residual enzyme activity (initial rate of reaction) was determined by measuring the change in optical absorbance at 410 nm and the IC50 value for the test compound was determined.

[3] = 37° C., fluorogenic substrate H-DPro-Phe-Arg-AFC

Human plasma kallikrein, sequence (P03952 391-638): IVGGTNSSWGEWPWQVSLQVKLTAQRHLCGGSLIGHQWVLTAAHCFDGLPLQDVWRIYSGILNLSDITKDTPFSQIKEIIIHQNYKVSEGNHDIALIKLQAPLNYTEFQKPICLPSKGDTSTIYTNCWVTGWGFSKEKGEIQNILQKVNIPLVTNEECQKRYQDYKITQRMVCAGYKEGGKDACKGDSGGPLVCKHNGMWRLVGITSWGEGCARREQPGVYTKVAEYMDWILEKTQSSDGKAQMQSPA
Human plasma kallikrein, sequence (P03952 20-390 partner): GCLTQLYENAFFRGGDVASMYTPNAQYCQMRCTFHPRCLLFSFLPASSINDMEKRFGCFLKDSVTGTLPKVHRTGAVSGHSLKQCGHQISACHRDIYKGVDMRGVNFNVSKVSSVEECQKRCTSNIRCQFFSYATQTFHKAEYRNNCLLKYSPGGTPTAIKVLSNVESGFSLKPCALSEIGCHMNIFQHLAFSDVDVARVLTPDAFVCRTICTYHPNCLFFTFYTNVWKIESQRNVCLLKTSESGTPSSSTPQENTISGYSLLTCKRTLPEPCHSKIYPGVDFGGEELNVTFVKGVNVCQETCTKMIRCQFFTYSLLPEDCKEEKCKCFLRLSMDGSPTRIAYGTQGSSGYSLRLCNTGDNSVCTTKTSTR

Structure (SMILES)	IC50 [1, 3]	IC50 [2]	IC50 [1]
Cc1cc(C(=O)NCc2ccc(CN)cc2)c(C)n1Cc1cccc(C(N)=O)c1 [Example 62, 1-(3-Carbamoyl-benzyl)-2,5-dimethyl-1H-pyrrole-3-carboxylic acid 4-aminomethyl-benzylamide]	6.03 µM	> 10 µM	–
Cc1cc(C(=O)NCc2ccc(CN)cc2)c(C)n1Cc1ccc(C(N)=O)cc1 [Example 63, 1-(4-Carbamoyl-benzyl)-2,5-dimethyl-1H-pyrrole-3-carboxylic acid 4-aminomethyl-benzylamide]	7.34 µM	> 10 µM	–
Cc1cc(C(=O)NCc2ccc(CN)cc2)c(C)n1Cc1cccc(C#N)c1 [Example 64, 1-(3-Cyano-benzyl)-2,5-dimethyl-1H-pyrrole-3-carboxylic acid 4-aminomethyl-benzylamide]	6.25 µM	> 10 µM	–
Cc1cc(C(=O)NCc2ccc(CN)cc2)c(C)n1Cc1ccc(C#N)cc1 [Example 65, 1-(4-Cyano-benzyl)-2,5-dimethyl-1H-pyrrole-3-carboxylic acid 4-aminomethyl-benzylamide]	4.56 µM	> 10 µM	–
Cc1cc(C(=O)NCc2ccc(CN)cc2)c(C)n1Cc1cccc(CN)c1 [Example 66, 1-(3-Aminomethyl-benzyl)-2,5-dimethyl-1H-pyrrole-3-carboxylic acid 4-aminomethyl-benzylamide]	5.38 µM	4.23 µM	–
Cc1cc(C(=O)NCc2ccc(CN)cc2)c(C)n1Cc1ccc(CN)cc1 [Example 67, 1-(4-Aminomethyl-benzyl)-2,5-dimethyl-1H-pyrrole-3-carboxylic acid 4-aminomethyl-benzylamide]	3.5 µM	6.97 µM	–
CC(=O)NCc1ccc(Cn2c(C)cc(C(=O)NCc3ccc(CN)cc3)c2C)cc1 [Example 68, 1-[4-(Acetylamino-methyl)-benzyl]-2,5-dimethyl-1H-pyrrole-3-carboxylic acid 4-aminomethyl-benzylamide]	2.09 µM	> 10 µM	–
Cc1cc(C(=O)NCc2ccc(CN)cc2)c(C)n1Cc1cccc(-c2ccccc2)c1 [Example 69, 1-Biphenyl-3-ylmethyl-2,5-dimethyl-1H-pyrrole-3-carboxylic acid 4-aminomethyl-benzylamide]	0.689 µM	> 10 µM	–
Cc1cc(C(=O)NCc2ccc(CN)cc2)c(C)n1Cc1ccc(-c2ccccc2)cc1 [Example 70, 1-Biphenyl-4-ylmethyl-2,5-dimethyl-1H-pyrrole-3-carboxylic acid 4-aminomethyl-benzylamide]	4.59 µM	> 10 µM	–
Cc1cc(C(=O)NCc2ccc(CN)cc2)c(C)n1Cc1cccc(-c2cccnc2)c1 [Example 71, 2,5-Dimethyl-1-(3-pyridin-3-yl-benzyl)-1H-pyrrole-3-carboxylic acid 4-aminomethyl-benzylamide]	0.702 µM	> 10 µM	–
Cc1cc(C(=O)NCc2ccc(CN)cc2)c(C)n1Cc1cccc(-c2ccncc2)c1 [Example 72, 2,5-Dimethyl-1-(3-pyridin-4-yl-benzyl)-1H-pyrrole-3-carboxylic acid 4-aminomethyl-benzylamide]	3.02 µM	> 10 µM	–
Cc1cc(C(=O)NCc2ccc(CN)cc2)c(C)n1Cc1cccc(N2CCOCC2)c1 [Example 73, 2,5-Dimethyl-1-(3-morpholin-4-yl-benzyl)-1H-pyrrole-3-carboxylic acid 4-aminomethyl-benzylamide]	7.58 µM	> 10 µM	–
Cc1cc(C(=O)NCc2ccc(CN)cc2)c(C)n1Cc1cccc(N2CCCCC2)c1 [Example 74, 2,5-Dimethyl-1-(3-piperidin-1-yl-benzyl)-1H-pyrrole-3-carboxylic acid 4-aminomethyl-benzylamide]	1.58 µM	> 10 µM	–
Cc1cc(C(=O)NCc2ccc(CN)cc2)n(C)c1Cc1ccccc1 [Example 75, 5-Benzyl-1,4-dimethyl-1H-pyrrole-2-carboxylic acid 4-aminomethyl-benzylamide]	4.5 µM	> 10 µM	–
Cc1cc(C(=O)NCc2ccc(CN)cc2)[nH]c1Cc1ccccc1 [Example 76, 5-Benzyl-4-methyl-1H-pyrrole-2-carboxylic acid 4-aminomethyl-benzylamide]	8.77 µM	> 10 µM	–
CCn1c(C(=O)NCc2ccc(CN)cc2)cc(C)c1Cc1ccccc1 [Example 77, 5-Benzyl-1-ethyl-4-methyl-1H-pyrrole-2-carboxylic acid 4-aminomethyl-benzylamide]	3.72 µM	> 10 µM	–
CCCn1c(C(=O)NCc2ccc(CN)cc2)cc(C)c1Cc1ccccc1 [Example 78, 5-Benzyl-4-methyl-1-propyl-1H-pyrrole-2-carboxylic acid 4-aminomethyl-benzylamide]	4.13 µM	> 10 µM	–
CC(C)NC(=O)c1ccc(Cn2cc(C(=O)NCc3ccc(CN)cc3)cn2)cc1 [Example 79, 1-(4-Isopropylcarbamoyl-benzyl)-1H-pyrazole-4-carboxylic acid 4-aminomethyl-benzylamide]	5.55 µM	> 10 µM	–
Cc1c(C(=O)NCc2ccc(CN)cc2)cnn1Cc1csc(-c2ccccc2)n1 [Example 80, 5-Methyl-1-(2-phenyl-thiazol-4-ylmethyl)-1H-pyrazole-4-carboxylic acid 4-aminomethyl-benzylamide]	2.34 µM	> 10 µM	–
Cc1nn(Cc2csc(-c3ccccc3)n2)cc1C(=O)NCc1ccc(CN)cc1 [Example 81, 3-Methyl-1-(2-phenyl-thiazol-4-ylmethyl)-1H-pyrazole-4-carboxylic acid 4-aminomethyl-benzylamide]	0.695 µM	> 10 µM	–
NCc1ccc(CNC(=O)c2cnn(Cc3csc(-c4ccccc4)n3)c2C(F)(F)F)cc1 [Example 82, 1-(2-Phenyl-thiazol-4-ylmethyl)-5-trifluoromethyl-1H-pyrazole-4-carboxylic acid 4-aminomethyl-benzylamide]	0.488 µM	> 8.66 µM	–
Cc1cnn(Cc2ccc(Cn3cc(C(=O)NCc4ccc(CN)cc4)cn3)cc2)c1 [Example 85, 1-[4-(4-Methyl-pyrazol-1-ylmethyl)-benzyl]-1H-pyrazole-4-carboxylic acid 4-aminomethyl-benzylamide]	–	> 8.51 µM	0.011 µM
Cc1cc(C)n(Cc2ccc(Cn3cc(C(=O)NCc4ccc(CN)cc4)cn3)cc2)n1 [Example 86, 1-[4-(3,5-Dimethyl-pyrazol-1-ylmethyl)-benzyl]-1H-pyrazole-4-carboxylic acid 4-aminomethyl-benzylamide]	0.007 µM	> 10 µM	–
NCc1ccc(CNC(=O)c2cnn(Cc3ccc(C(=O)N4CCCCC4)cc3)c2)cc1 [Example 87, 1-[4-(Piperidine-1-carbonyl)-benzyl]-1H-pyrazole-4-carboxylic acid 4-aminomethyl-benzylamide]	5.48 µM	> 10 µM	–
NC1(c2ccc(CNC(=O)c3cnn(Cc4ccc(Cn5ccccc5=O)cc4)c3)cc2)CC1 [Example 89, 1-[4-(2-Oxo-2H-pyridin-1-ylmethyl)-benzyl]-1H-pyrazole-4-carboxylic acid 4-(1-amino-cyclopropyl)-benzylamide]	0.226 µM	> 10 µM	–
Cc1cc(C(=O)NCc2ccc(CN)cc2)c(C)n1Cc1ccc(Cn2ccccc2=O)cc1 [Example 90, 2,5-Dimethyl-1-[4-(2-oxo-2H-pyridin-1-ylmethyl)-benzyl]-1H-pyrrole-3-carboxylic acid 4-aminomethyl-benzylamide]	–	> 10 µM	0.114 µM
